Calls of active or inactive are those of the source.
How the values were obtained:
[1] = MITF Orthogonal Assay: SK-MEL-5 CTG Assay Measured in Cell-Based System Using Plate Reader - 2084-02_Inhibitor_Dose_DryPowder_Activity_Set7.; type: functional
[2] = MITF: Counter assay: A375 proliferation Measured in Cell-Based System Using Plate Reader - 2084-03_Inhibitor_Dose_DryPowder_Activity_Set8.; type: functional; conditions: A-375
[3] = inhibitors of TRPM1-promoter reporter in SK-MEL-5 – cell-based, luciferase, dry powder, set 8, MITF inhibitor project, dose response (AID 624430); type: functional
[4] = target: T1, Corticotropin-releasing factor receptor 2/Corticotropin-releasing factor-binding protein (Homo sapiens, UniProt P24387+Q13324); test: activators of CRF receptor 2 with binding protein – uHTS hits, confirmation (AID 602473); type: functional; conditions: read-out: EC50_Mean
T1 sequence (Q13324 whole entry): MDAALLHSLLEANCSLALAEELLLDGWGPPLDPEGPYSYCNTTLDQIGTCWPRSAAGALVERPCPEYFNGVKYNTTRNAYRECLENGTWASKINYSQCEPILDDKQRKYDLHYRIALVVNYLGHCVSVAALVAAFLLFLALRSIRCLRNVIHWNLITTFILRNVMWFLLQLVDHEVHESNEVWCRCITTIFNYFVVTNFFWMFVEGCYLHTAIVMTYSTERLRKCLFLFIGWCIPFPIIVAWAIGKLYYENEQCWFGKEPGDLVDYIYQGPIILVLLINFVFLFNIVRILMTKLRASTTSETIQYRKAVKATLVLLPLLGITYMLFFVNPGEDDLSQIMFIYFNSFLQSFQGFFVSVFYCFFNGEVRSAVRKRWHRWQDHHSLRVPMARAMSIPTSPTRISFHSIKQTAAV
T1 sequence (P24387 whole entry): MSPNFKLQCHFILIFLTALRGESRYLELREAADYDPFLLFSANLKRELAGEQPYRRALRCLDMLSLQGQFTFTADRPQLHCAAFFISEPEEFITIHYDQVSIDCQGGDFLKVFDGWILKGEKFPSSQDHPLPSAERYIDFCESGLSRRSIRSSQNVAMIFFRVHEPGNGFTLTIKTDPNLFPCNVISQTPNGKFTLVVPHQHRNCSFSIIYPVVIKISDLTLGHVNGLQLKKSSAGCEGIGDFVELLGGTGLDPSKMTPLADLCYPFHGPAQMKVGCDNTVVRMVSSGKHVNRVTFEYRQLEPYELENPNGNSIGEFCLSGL

[5] = blockers of CRF-binding protein–CRF-R2 complex – cell-based, uHTS hits, 384-well, dose response (AID 651639); type: functional, Homo sapiens; conditions: read-out: IC50_Mean
[6] = target: T1, Corticotropin-releasing factor receptor 2/Corticotropin-releasing factor-binding protein; test: Dose Response confirmation of uHTS hits for small molecule antagonists of the CRF-binding protein and CRF-R2 receptor complex.; type: functional; conditions: read-out: IC50_Mean
INS1 = test: INS-1E survival protection against cytokine death – cell-based, luminescence, retest, dose response (AID 449756); type: functional; conditions: Rattus norvegicus;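 further: cell death triggered by IL-1 beta plus TNF-alpha plus IFN-gamma mixture; protective hits raise ATP signal compared with cytokine alone wells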
HEK293 = test: viability loss in HEK293T cells – cell-based, ATP luminescence, cherry-pick samples, cytotoxicity control, dose response (AID 687005); type: functional; conditions: Homo sapiens;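 further: cells exposed to compound for 48 hours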
[7] = HEK293 Cytotoxicity Assay Measured in Cell-Based System Using Plate Reader - 7071-01_Inhibitor_Dose_CherryPick_Activity_Set2.; type: functional
Beta-galactosidase = Beta-galactosidase (Escherichia coli, UniProt Q8VNN2); test: Dose response counterscreen for EBI2 assay utilizing the enzyme, b-galactosidase.; type: functional
Beta-galactosidase, sequence (Q8VNN2 whole entry): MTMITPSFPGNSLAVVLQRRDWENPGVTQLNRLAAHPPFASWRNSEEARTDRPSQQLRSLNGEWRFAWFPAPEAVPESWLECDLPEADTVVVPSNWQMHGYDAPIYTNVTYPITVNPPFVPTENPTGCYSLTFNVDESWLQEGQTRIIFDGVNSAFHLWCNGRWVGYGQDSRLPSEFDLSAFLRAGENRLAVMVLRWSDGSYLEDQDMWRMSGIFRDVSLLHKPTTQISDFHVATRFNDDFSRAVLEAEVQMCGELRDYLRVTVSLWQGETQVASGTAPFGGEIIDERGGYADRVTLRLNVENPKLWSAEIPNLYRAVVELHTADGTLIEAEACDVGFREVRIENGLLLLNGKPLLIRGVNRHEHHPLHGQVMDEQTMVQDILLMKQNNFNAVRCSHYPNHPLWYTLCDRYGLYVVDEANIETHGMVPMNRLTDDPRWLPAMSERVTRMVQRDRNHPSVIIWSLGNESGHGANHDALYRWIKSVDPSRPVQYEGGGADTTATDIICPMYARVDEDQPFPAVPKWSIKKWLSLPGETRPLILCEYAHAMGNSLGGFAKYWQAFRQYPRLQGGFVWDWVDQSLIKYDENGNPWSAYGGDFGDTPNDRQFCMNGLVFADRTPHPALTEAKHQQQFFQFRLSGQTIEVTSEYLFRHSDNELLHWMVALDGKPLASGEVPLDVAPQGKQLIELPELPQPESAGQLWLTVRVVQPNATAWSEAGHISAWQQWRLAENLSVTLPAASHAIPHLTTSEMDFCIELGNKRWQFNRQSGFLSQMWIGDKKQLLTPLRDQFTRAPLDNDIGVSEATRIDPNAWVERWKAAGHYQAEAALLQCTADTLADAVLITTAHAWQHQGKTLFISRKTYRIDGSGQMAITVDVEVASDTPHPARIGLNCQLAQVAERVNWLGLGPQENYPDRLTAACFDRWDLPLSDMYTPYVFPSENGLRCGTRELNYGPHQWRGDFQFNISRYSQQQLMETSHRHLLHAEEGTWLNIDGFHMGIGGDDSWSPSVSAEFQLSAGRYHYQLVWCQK

[8] = A Cell-Based Confirmatory Screen for Compounds that Inhibit VEEV, TC-83 (7).; type: functional
Protein Wnt-3a = Protein Wnt-3a (Mus musculus, UniProt P27467); test: antagonism of Wnt3a pathway luciferase reporter – Wnt-LIGHT cells, luminescence, selectivity assay for Gli-SUFU antagonist project, dose response (AID 651570); type: functional; conditions: read-out: IC50_Mean;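 further: Wnt-LIGHT reporter cells stimulated with conditioned medium from Wnt3a-producing cells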
Protein Wnt-3a, sequence (P27467 whole entry): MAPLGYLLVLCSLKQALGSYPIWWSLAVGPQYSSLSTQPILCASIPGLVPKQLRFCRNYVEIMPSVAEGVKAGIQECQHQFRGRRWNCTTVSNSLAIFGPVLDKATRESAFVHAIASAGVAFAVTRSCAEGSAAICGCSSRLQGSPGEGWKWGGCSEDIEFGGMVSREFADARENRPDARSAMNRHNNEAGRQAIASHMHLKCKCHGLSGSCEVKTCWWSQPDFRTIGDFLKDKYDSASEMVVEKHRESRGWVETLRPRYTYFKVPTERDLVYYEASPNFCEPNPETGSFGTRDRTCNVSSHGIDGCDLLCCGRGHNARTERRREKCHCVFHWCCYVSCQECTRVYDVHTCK

[9] = target: Endoplasmic reticulum aminopeptidase 1 (Homo sapiens, UniProt Q9NZ08); test: inhibition of human ERAP1 enzyme activity – biochemical, cherry-pick, set 2, plate reader, dose response (AID 743314)
Endoplasmic reticulum aminopeptidase 1, sequence (Q9NZ08 whole entry, the tested form may be a part): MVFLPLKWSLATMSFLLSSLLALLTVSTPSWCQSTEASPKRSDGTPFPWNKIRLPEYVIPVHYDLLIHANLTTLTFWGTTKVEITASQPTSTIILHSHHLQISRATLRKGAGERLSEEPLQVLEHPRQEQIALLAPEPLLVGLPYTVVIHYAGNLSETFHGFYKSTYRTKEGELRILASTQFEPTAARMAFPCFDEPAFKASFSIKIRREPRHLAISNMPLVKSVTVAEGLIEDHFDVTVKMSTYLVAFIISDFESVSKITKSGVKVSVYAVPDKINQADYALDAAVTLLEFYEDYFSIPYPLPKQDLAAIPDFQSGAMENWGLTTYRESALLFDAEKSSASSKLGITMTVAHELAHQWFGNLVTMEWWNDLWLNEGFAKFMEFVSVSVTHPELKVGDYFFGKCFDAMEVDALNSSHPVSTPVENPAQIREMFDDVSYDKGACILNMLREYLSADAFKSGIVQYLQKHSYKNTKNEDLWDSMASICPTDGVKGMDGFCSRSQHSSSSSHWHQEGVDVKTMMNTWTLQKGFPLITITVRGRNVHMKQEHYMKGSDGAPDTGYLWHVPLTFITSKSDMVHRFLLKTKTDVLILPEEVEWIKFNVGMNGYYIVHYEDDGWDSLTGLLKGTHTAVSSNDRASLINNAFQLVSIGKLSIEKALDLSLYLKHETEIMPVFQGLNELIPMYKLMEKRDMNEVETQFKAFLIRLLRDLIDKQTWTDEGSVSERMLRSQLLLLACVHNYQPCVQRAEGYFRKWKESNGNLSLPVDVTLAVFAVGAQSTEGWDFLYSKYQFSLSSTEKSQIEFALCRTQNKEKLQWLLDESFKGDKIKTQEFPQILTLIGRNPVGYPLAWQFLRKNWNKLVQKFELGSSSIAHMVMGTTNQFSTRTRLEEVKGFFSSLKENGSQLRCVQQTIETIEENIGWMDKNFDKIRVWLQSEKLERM

[10] = target: T2, Sentrin-specific protease 1 (Homo sapiens, UniProt Q9P0U3); test: Dose response confirmation of small molecule inhibitors of the catalytic domain of the SUMO protease, SENP1 in a FRET assay.; type: functional; conditions: read-out: IC50_Mean
T2 sequence (Q9P0U3 whole entry, the tested form may be a part): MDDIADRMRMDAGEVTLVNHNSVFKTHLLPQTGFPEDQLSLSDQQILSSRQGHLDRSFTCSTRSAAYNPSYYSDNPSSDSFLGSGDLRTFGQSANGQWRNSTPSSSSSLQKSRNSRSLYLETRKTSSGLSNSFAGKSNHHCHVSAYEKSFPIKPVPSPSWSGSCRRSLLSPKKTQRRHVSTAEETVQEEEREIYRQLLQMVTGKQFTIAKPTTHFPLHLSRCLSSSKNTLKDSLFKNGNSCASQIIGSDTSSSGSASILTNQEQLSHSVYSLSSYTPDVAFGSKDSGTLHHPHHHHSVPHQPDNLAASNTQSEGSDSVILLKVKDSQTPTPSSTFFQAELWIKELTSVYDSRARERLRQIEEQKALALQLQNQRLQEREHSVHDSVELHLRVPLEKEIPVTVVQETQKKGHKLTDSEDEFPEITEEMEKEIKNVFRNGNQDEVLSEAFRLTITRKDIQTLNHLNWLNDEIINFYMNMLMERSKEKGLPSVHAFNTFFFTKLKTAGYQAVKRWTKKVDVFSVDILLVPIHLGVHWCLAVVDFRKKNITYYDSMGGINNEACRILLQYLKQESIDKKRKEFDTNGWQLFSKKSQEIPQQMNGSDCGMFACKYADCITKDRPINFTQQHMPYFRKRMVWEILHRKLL

[11] = target: T2, Sentrin-specific protease 1; test: SENP1 catalytic domain blockers, concentration series – biochemical, kinetic FRET, dose response (AID 651697); type: functional; conditions: read-out: IC50_Mean
[12] = target: Photoreceptor-specific nuclear receptor (Homo sapiens, UniProt Q9Y5X4); type: functional, cell-based;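 further: CHO-S cells with Gal4-NCOR and VP16-NR2E3 two-hybrid luciferase reporter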
Photoreceptor-specific nuclear receptor, sequence (Q9Y5X4 whole entry, the tested form may be a part): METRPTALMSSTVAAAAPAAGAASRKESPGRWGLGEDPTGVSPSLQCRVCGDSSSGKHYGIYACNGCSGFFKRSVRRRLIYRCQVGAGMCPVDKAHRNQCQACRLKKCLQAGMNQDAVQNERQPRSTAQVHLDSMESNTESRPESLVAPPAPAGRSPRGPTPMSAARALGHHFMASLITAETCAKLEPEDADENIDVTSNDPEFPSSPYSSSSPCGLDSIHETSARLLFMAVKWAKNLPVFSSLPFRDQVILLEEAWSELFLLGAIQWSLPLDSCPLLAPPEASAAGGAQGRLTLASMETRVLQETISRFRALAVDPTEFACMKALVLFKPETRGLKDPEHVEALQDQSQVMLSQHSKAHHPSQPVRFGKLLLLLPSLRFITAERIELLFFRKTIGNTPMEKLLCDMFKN

CN1CCN(C2=C(Nc3ccc(Cl)c(Cl)c3)C(=O)c3ccccc3C2=O)CC1
AC50 [1]: 7.66 µM (active)
AC50 [2]: 27.9 µM (active)
AC50 [3]: 6.64 µM (active)

O=S(=O)(Nc1nc2ccccc2s1)c1ccc(Cl)s1
EC50 [4]: > 53 µM (inactive)
IC50 [5]: 8.22 µM (active)
IC50 [6]: 6.02 µM (active)
AC50 (INS1): 31.8 µM (active)

O=C(c1cccc(Br)c1)N1CCN(c2ccccn2)CC1
AC50 (HEK293): > 52 µM (inactive)
AC50 [7]: > 52 µM (inactive)

CCOC(=O)c1ccc(S(=O)(=O)N2CCN(C(=O)c3cc4ccccc4o3)CC2)cc1
IC50 (Beta-galactosidase): > 80 µM (inactive)

O=c1c2cc([N+](=O)[O-])ccc2nc(CN2CCCNC2)n1-c1ccccc1
IC50 [8]: 1.13 µM (active)

CCN(CC)C(=O)c1ccc(S(=O)(=O)N2CCC(c3nc4ccccc4s3)CC2)cc1
IC50 (Protein Wnt-3a): 39.7 µM (inactive)
AC50 (INS1): 5.69 µM (active)

CCCNC(=O)[C@H]1[C@H](CO)[C@H]2Cn3c(ccc(/C=C/c4ccccc4)c3=O)[C@H]2N1CCC
AC50 [9]: 14.8 µM (active)

COc1cc(NC2=Nc3cccc4cccc2c34)cc(OC)c1OC
IC50 [10]: 19.9 µM (active)
IC50 [11]: 68.8 µM (inactive)

FC(F)Sc1ccc(NC(=S)N2CCN(c3ccccn3)CC2)cc1
IC50 [12]: 2.52 µM (active)

— ChEMBL document CHEMBL1201862, “PubChem BioAssay data set” (2004)
